Experimental data taken from patent EP4692072A1, “PHOTOCHROMIC COMPOUND, PROPARGYL ALCOHOL COMPOUND, CURABLE COMPOSITION, OPTICAL ARTICLE, LENS, AND SPECTACLES” (TOKUYAMA CORPORATION, priority 2023, dated 2024).

Key:
[1] = Accelerated deterioration (xenon weather meter X25, 120 hours) of binder sheet prepared by binder method; type: physicochemical; details: 0.25 mmol per 100 parts by mass resin, A120/A0×100 after 120 hours xenon weather meter
Protocol: (§1) • [1] Maximum Absorption Wavelength (λmax): The maximum absorption wavelength after color development, measured using a spectrophotometer (instantaneous multichannel photodetector MCPD3000) manufactured by Otsuka Electronics Co., Ltd. was used as an indicator for the color tone during the color development. • [2] 23°C Color Optical Density (A23): A difference between an absorbancy measured after light irradiation at 23°C for 300 seconds {ε(300)} and an absorbancy without light irradiation ε(0) at the maximum absorption wavelength was used as an indicator for the color optical density. […] 23°C color fading half-life [τ1/2 (sec.)]: A time required for the absorbancy of the sample at the maximum absorption wavelength to decrease to 1/2 of {ε(300)-ε(0)} when the light irradiation was terminated after the light irradiation at 23°C for 300 seconds, was used as an indicator for the color fading speed. The shorter this time, the higher the color fading speed. • [4] Residual rate (A120/A0×100): The obtained photochromic plastic lens was subjected to accelerated deterioration using a xenon weather meter X25 manufactured by Suga Test Instruments Co., Ltd. for 120 hours. Subsequently, the color optical density was evaluated before and after the test, then a color optical density before the test (A0) and a color optical density after the test (A120) were measured, and a ratio (A120/A0) was defined as a residual rate. The residual rate was used as an indicator for a color developing durability. The higher the residual rate, the higher the color developing durability. The results of Examples 26, 50, and Comparative Examples 1 to 8 are summarized in Table 1, and the results of Examples 27 to 49 are summarized in Tables 2 and 3.
(§2) A binder sheet was prepared using the following method. The binder sheet consisted of a first optical sheet, a first adhesive layer, a photochromic layer, a second adhesive layer, and a second optical sheet, which are laminated in this order. The first optical sheet and the second optical sheet were made of a polycarbonate sheet with a thickness of 400 µm.
(§3) A 2L four-necked flask equipped with agitation blades, a cooling tube, a thermometer, and a nitrogen gas introducing tube was charged with 315 parts by mass of polycarbonate diol having a number-average molecular weight of 1000, 100 parts by mass of isophorone diisocyanate, and 72 parts by mass of toluene, and the mixture was reacted under nitrogen atmosphere at 100°C for 7 hours to synthesize a urethane prepolymer having an isocyanate group on its terminal. After completion of the urethane prepolymer reaction, the reaction liquid was cooled to approximately 0°C, then dissolved in 205 parts by mass of t-butyl alcohol and 382 parts by mass of diethyl ketone, and then the liquid temperature was maintained at 0°C. Subsequently, into this reaction liquid, a mixture of 21.3 parts by mass of bis-(4-aminocyclohexyl)methane as a chain extender and 20 parts by mass of diethyl ketone was dripped over within 30 minutes, and the mixture was reacted at 0°C for 1 hour. Then, into the mixture, 8.1 parts by mass of 1,2,2,6,6-pentamethyl-4-aminopiperidine was dripped, and the mixture was reacted at 0°C for 1 hour to obtain a diethyl ketone solution of a terminal non-reactive urethaneurea resin.
(§4) To 100 parts by mass of the obtained terminal non-reactive urethaneurea resin solution, the photochromic compound in Example 1 (represented by formula (28) above), 6.3 parts by mass of 4,4'-methylenebis(cyclohexyl isocyanate) isomer mixture (polyisocyanate compound), furthermore 0.4 part by mass of ethylene bis(oxyethylene)bis[3-(5-tert-butyl-4-hydroxy-m-tolyl)propionate] as an antioxidant, and 0.06 part by mass of DOW CORNING TORAY L-7001 as a surfactant were added, and the mixture was stirred and mixed at room temperature to obtain a photochromic layer forming composition. […]

[2] = Photochromic properties of binder sheet (photochromic layer prepared by binder method); type: physicochemical; details: 0.25 mmol per 100 parts by mass resin; for A23: 23°C color optical density ε(300)-ε(0); for Maximum absorption wavelength: urethaneurea resin binder sheet, after color development
Protocol: as §1, §2, §3, §4

CCN(c1ccc(OC)cc1)c1ccc(C2(c3ccc(OC)cc3)C=Cc3c4c(c5cc(-c6ccc(N7CCOCC7)cc6)c(OC)cc5c3O2)-c2ccccc2C4(C)C)cc1 (centres unmarked) [Example 25]
Residual rate [1]: 87%
A23 [2]: 0.88 -
A23 ([2]; listed as Formula (88)): 0.97 -
Maximum absorption wavelength [2]: 505 nm
Maximum absorption wavelength ([2]; listed as Formula (88)): 606 nm

COc1ccc(C2(c3ccc(N(C)c4ccccc4)cc3)C=Cc3c4c(c5cc(-c6ccc(N7CCOCC7)cc6)c(OC)cc5c3O2)-c2ccccc2C4(C)C)cc1 (centres unmarked) [Example 1]
Residual rate [1]: 89%
Residual rate ([1]; listed as Formula (37)): 90%
A23 [2]: 0.97 -
A23 ([2]; listed as Formula (37)): 1.06 -
Maximum absorption wavelength [2]: 502 nm
Maximum absorption wavelength ([2]; listed as Formula (37)): 603 nm

COCCCCC1(CCCCOC)c2cc(Sc3c(C)cccc3C)ccc2-c2c1c1c(c3cc(OC)ccc23)OC(c2ccc(OC)cc2)(c2ccc(N(C)c3ccc(OC)cc3)cc2)C=C1 (centres unmarked) [Example 11]
Residual rate [1]: 90%
Residual rate ([1]; listed as Formula (65)): 89%
A23 [2]: 0.51 -
A23 ([2]; listed as Formula (65)): 0.97 -
Maximum absorption wavelength [2]: 479 nm
Maximum absorption wavelength ([2]; listed as Formula (65)): 612 nm

CCCCOCCC1(CCOCCCC)c2ccccc2-c2c1c1c(c3cc(OC)c(NC(=O)c4ccccc4)cc23)OC(c2ccc(N(C)c3ccccc3)cc2)(c2ccc(OC)c(F)c2)C=C1 (centres unmarked) [Example 53]
Residual rate [1]: 87%
Residual rate ([1]; listed as Formula (95)): 89%
A23 [2]: 0.75 -
A23 ([2]; listed as Formula (95)): 0.96 -
Maximum absorption wavelength [2]: 502 nm
Maximum absorption wavelength ([2]; listed as Formula (95)): 607 nm

COCCC1(CCOC)c2ccccc2-c2c1c1c(c3cc(OC)c(-c4ccc(N(c5ccccc5)c5ccccc5)cc4)cc23)OC(c2ccc(Oc3ccccc3)cc2)(c2ccc(N(C)c3ccccc3)cc2)C=C1 (centres unmarked) [Example 23]
Residual rate [1]: 89%
A23 [2]: 1.02 -
A23 ([2]; listed as Formula (85)): 1.06 -
Maximum absorption wavelength [2]: 506 nm
Maximum absorption wavelength ([2]; listed as Formula (85)): 609 nm

COc1ccc(N(C)c2ccc(C3(c4ccc(CCO[Si](C)(C)CC[Si](O[Si](C)(C)C)(O[Si](C)(C)C)O[Si](C)(C)C)cc4)C=Cc4c5c(c6cc(N(C)c7ccccc7)c(OC)cc6c4O3)-c3ccc(C(F)(F)F)cc3C53CCC(C)(C)CC3)cc2)cc1 (centres unmarked) [Example 60]
Residual rate [1]: 88%
Residual rate ([1]; listed as Formula (121)): 89%
A23 [2]: 0.84 -
A23 ([2]; listed as Formula (121)): 0.87 -
Maximum absorption wavelength [2]: 524 nm
Maximum absorption wavelength ([2]; listed as Formula (121)): 582 nm

CCCC1(CCC)c2ccccc2-c2c1c1c(c3cc(OC)c(-c4ccc(OC)cc4OC)cc23)OC(c2ccc(C)cc2)(c2ccc(N(C)c3ccccc3)cc2)C=C1 (centres unmarked) [Example 19]
Residual rate [1]: 91%
A23 [2]: 0.88 -
A23 ([2]; listed as Formula (80)): 1.14 -
Maximum absorption wavelength [2]: 492 nm
Maximum absorption wavelength ([2]; listed as Formula (80)): 604 nm

CCCC1(CCC)c2cc(OC(F)(F)F)ccc2-c2c1c1c(c3cc(OC)c(Sc4c(C)cccc4C)cc23)OC(c2ccc(N(C)c3ccccc3)cc2)(c2ccc(OC)c(OC)c2)C=C1 (centres unmarked) [Example 57]
Residual rate [1]: 91%
Residual rate ([1]; listed as Formula (110)): 90%
A23 [2]: 0.85 -
A23 ([2]; listed as Formula (110)): 0.87 -
Maximum absorption wavelength [2]: 493 nm
Maximum absorption wavelength ([2]; listed as Formula (110)): 618 nm

CCCCN(c1ccccc1)c1ccc(C2(c3ccc(C)cc3)C=Cc3c4c(c5cc(N6CCOCC6)c(OC)cc5c3O2)-c2ccccc2C4(CC)CC)cc1 (centres unmarked) [Example 10]
Residual rate [1]: 91%
A23 [2]: 1.35 -
A23 ([2]; listed as Formula (62)): 1.12 -
Maximum absorption wavelength [2]: 516 nm
Maximum absorption wavelength ([2]; listed as Formula (62)): 594 nm
